Read-outs that look alike come from different tables or passages of the source.
Key:
[1] = target: T1, recombinant HIV reverse transcriptase (HIV RTR) (Human immunodeficiency virus type 1 group M subtype B, UniProt P04585); test: Reverse transcriptase assay (wild type); type: biochemical, HIV-1; details: wild-type RT, read-out: IC*50 wt
T1 construct: recombinant HIV reverse transcriptase (HIV RTR); made in house; host or cells: E. coli
Protocol: (§1) The assay measures the incorporation of tritiated deoxyguanosine monophosphate by recombinant HIV reverse transcriptase (HIV RTR) (or other RT) into acid-precipitable cDNA at the Km values of dGTP and poly r(C).cndot.oligo d(G)12-18.
(§2) The assays were carried out in 55 mM Tris (pH 8.2)-30 mM KCl-30 mM MgCl2 -1 mM dithiothreitol-20 μg of rC:dG 12-18 (Pharmacia) per ml-8 mM [^3 H]dGTP (New England Nuclear)-0.01% Triton X-100-50 mM ethylene glycol-bis(β-amino-ethyl ether)-N,N,N',N'-tetraacetic acid (EGTA)-1 mg of bovine serum albumin per ml. After 60 min of incubation at 37° C., acid-precipitable material was collected onto glass fiber filters by using a semiautomatic cell harvester. Bacterial cell extracts containing RT were diluted to within the linear range of the assay, and activity was determined in the presence and absence of inhibitor. Purified HIV-1 RT heterodimer produced in E. coli also served as a control.

A17 RT = target: T2, A17 RT (Human immunodeficiency virus type 1 group M subtype B, UniProt P04585, K690N/Y768C); test: biochemical; set-up: species or system HIV-1
T2 construct: A17 RT was employed in the assay; made in house; host or cells: bacteria
Protocol: as §1, §2
For the double mutant assay (dm), A17 RT was employed in the assay. […] Results are measured as IC50 dm in nanomoles/liter.

Compound	IC50 ([1]; Table II) [µM]	IC50 (A17 RT) [µM]	IC50 ([1]; Table I) [µM]
S=C1Nc2ccc(Cl)cc2C(c2ccccc2)(C2CC2)O1 (stereo not drawn) [Compound 46]	0.041	> 300	
COCC#CC1(C2CC2)OC(=O)Nc2ccc(Cl)cc21 (stereo not drawn) [Compound 30]		3	0.41
CCC1(c2ccccc2)OC(=O)Nc2ccc(Cl)cc21 (stereo not drawn) [Compound 33]			0.3
CCC1(CC)OC(=S)Nc2ccc(Cl)cc21 [Compound 45]	0.56	> 300	
COc1ccc(C#CC2(C(F)(F)F)OC(=O)Nc3ccc(Cl)cc32)cc1 (stereo not drawn)		4.1	0.058
Cc1ccc(C#CC2(C(F)(F)F)OC(=O)Nc3ccc(Cl)cc32)cc1 (stereo not drawn) [Compound 8]		8.47	0.163
O=C1Nc2ccc(Cl)cc2C(C#Cc2ccccc2)(C(F)(F)Cl)O1 (racemic) [Compound 5, (+/-) 4-(1-Chloro-1,1-difluoromethyl)-4-(2-phenylethynyl)-6-chloro-1,4-dihydro-2H-3,1-benzoxazin-2-one]		0.35	0.012
C=CC1(C(F)(F)F)OC(=O)Nc2ccc(Cl)cc21 (stereo not drawn) [Compound 23]		> 30	1.3
CN(C)CC#CC1(C2CC2)OC(=O)Nc2ccc(Cl)cc21 (stereo not drawn) [Compound 31]		4.25	0.41
O=C1Nc2ccc(Cl)cc2C(Sc2ccccc2)(C(F)(F)F)O1 (stereo not drawn) [Compound 21]		125	0.86
COc1cccc(C#CC2(C(F)(F)F)OC(=O)Nc3ccc(Cl)cc32)c1 (stereo not drawn) [Compound 10]		0.39	0.018
CCCC1(c2ccccc2)OC(=S)Nc2ccc(Cl)cc21 (stereo not drawn) [Compound 43]	0.61		
S=C1Nc2ccc(Cl)cc2C(C2CC2)(C2CC2)O1 [Compound 38]	0.136	> 300	
O=C1Nc2ccc(Cl)cc2C(c2ccccc2)(C(F)(F)F)O1 (stereo not drawn) [Compound 20]		100	0.145
CCCC1(C2CC2)OC(=S)Nc2ccc(Cl)cc21 (stereo not drawn) [Compound 40]	0.048	29	
CCC1(C2CC2)OC(=S)Nc2ccc(Cl)cc21 (stereo not drawn) [Compound 39]	0.51	> 300	
O=C1Nc2ccc(Cl)cc2C(CCc2ccccc2)(C(F)(F)F)O1 (stereo not drawn) [Compound 22]		3.65	0.055
CCCC1(C2CCCC2)OC(=S)Nc2ccc(Cl)cc21 (stereo not drawn) [Compound 41]	1.4	> 300	
CCCC1(c2ccccc2)OC(=O)Nc2ccc(Cl)cc21 (stereo not drawn) [Compound 32]			5.4
O=C1Nc2ccc(Cl)cc2C(C#CCN2CCCC2)(C(F)(F)F)O1 (racemic) [Compound 7, (+/-) 6-Chloro-4-(1,1,1-trifluoromethyl)-4-[(3-(1-pyrrolidinyl))-1-propynyl] -1,4-dihydro-2H-3,1-benzoxazin-2-one]		3.46	0.091
C#CC1(C(F)(F)F)OC(=O)Nc2ccc(Cl)cc21 (racemic) [Compound 26, (+/-) 6-Chloro-4-ethynyl-4-(1,1,1-trifluoromethyl)-1,4-dihydro-2H-3,1-benzoxazin-2-one]		> 100	0.00024
O=C1Nc2ccc(Cl)cc2C(CCCCl)(C(F)(F)F)O1 (stereo not drawn) [Compound 14]		65	0.13
CCCC1(CC)OC(=O)Nc2ccc(Cl)cc21 (stereo not drawn) [Compound 36]		> 300	0.052
CCC1(CC)OC(=O)Nc2ccc(Cl)cc21 [Compound 34]		> 300	16.5
C=CCC1(C(F)(F)F)OC(=O)Nc2ccc(Cl)cc21 (stereo not drawn) [Compound 25]		> 100	0.22
O=C1Nc2ccc(Cl)cc2C(C#CCO)(C(F)(F)F)O1 (stereo not drawn) [Compound 27]		> 100	0.55
CCCCC1(c2ccccc2)OC(=S)Nc2ccc(Cl)cc21 (stereo not drawn) [Compound 42]	1.45		
CCC1(C(F)(F)F)OC(=O)Nc2ccc(Cl)cc21 (stereo not drawn) [Compound 17]		> 100	2.3
C#CC1(CCC)OC(=O)Nc2ccc(Cl)cc21 (stereo not drawn) [Compound 29]		> 100	1.9

— patent US5519021A, “Benzoxazinones as inhibitors of HIV reverse transcriptase” (priority 1995, dated 1996)
